According to PMC12037037 (Proceedings of the National Academy of Sciences of the …, 2025):
pEC50, pKi: −log10 of the molar value.

How the values were obtained:
[1] = target: wild type human 5-HT2A receptor (psychLight2, PSYLI2 cells) (Homo sapiens, UniProt P28223); test: PsychLight assay, wild type; assay type: cell-based
Method: PsychLight Assays. Psychlight assays were performed using a previously published method (15) with slight modifications.
Briefly, a solution of PSYLI2 cells suspended in DMEM containing 10% FBS with 5% penicillin-streptomycin was added to
poly-D-lysine-coated glass bottom 96-well plates. The cells were plated at a density of 60,000 cells/well for the inner 60
wells and 90,000 cells/well for the outer 36 wells and incubated at 37°C with 5% CO2 for 18–24 h prior to each experiment.
On the day of each experiment, the DMEM solution was replaced with 100 µL/well Hoechst solution (2 µM in HBSS) and
incubated for 30 min at 37°C with 5% CO2. Plates were then washed 3x 200 µL HBSS and replaced with 160 µL/well of
assay buffer (HBSS with 0.5 mM HEPES buffer, adjusted to pH = 7.4 with 1 M NaOH) and incubated for 30 min (37°C, 5%
CO2). The cells were then imaged on a Thermo Scientific CellInsight CX7 LZR High Content Analysis Platform at 10X
(37°C, 5% CO2). Images from nine regions of interest (ROI) per well were obtained following the default ROI pattern with
no bias to location and no overlap of the ROIs. Baseline images were collected prior to drug addition. […]
activation was quantified using the built-in Target Validation Assay (version 6.0.1.4021) on the Thermo Scientific HCS Studio […]
objects (psychLight signal) were defined as signal within 12 pixels of the primary objects. PsychLight signal was calculated […]

male Long Evans rats = test: Probabilistic reward task (PRT) under chronic cold-water stress; assay type: in vivo; details: for Response bias (log b) (Figure 6G): JRT 1 mg/kg
[2] = target: T1, human recombinant 5-HT2AR (Homo sapiens, UniProt P28223); test: IP1 functional assay (5-HT2AR); assay type: cell-based; details: 5-HT2A, functional assay relevant to G protein activation (IP1), agonist mode
T1 construct: host or cells: CHO-K1
Method: (§1) IP1 Assay (5-HT2AR and 5-HT2CR). The 5-HT2AR and 5-HT2CR IPOne HTRF assays were performed at Epics
(§2) Therapeutics S.A. (Belgium, FAST-0505I) using conventional methods. Experiments were performed using the free bases
(§3) of (+)-JRT and (–)-JRT. Briefly, CHO-K1 cells expressing human recombinant 5-HT2AR grown to mid-log phase in culture
(§4) media without antibiotics were detached with PBS-EDTA, centrifuged, and resuspended in medium without antibiotics
(§5) buffer. Then, 20,000 cells were distributed in a 96-well plate and incubated overnight at 37 °C with 5% CO2. For agonist
(§6) were added to each well. The plate was incubated for 60 min at 37 °C with 5% CO2. After addition of the lysis buffer containing
(§7) IP1-d2 and anti-IP1 cryptate detection reagents, plates were incubated for 1 h at room temperature and fluorescence ratios
(§8) were measured according to the manufacturer’s specifications using the HTRF kit.
IP1 Assay (5-HT2BR). […]
(§9) Following incubation, the cells are lysed and the fluorescence acceptor (D2-
(§10) labeled IP1) and fluorescence donor (anti-IP1 antibody labeled with europium cryptate) were added. […]
(§11) temperature, the fluorescence transfer was measured at lex = 337 nm and lem = 620 and 665 nm using a microplate
(§12) reader (Envision, Perkin Elmer). The IP1 concentration was determined by dividing the signal measured at 665 nm by that
measured at 620 nm (ratio). […]

human 5-HT2B receptor = target: T2, human 5-HT2B receptor (Homo sapiens, UniProt P41595); test: IP1 functional assay (5-HT2BR); assay type: cell-based
T2 construct: host or cells: CHO
Method: as §1, §2, §3, §4, §5, §6, §7, §8
IP1 Assay (5-HT2BR). […]
as §9, §10, §11, §12
measured at 620 nm (ratio). […]

[3] = target: 5-HT2 receptors (5-HT2A, 5-HT2B, 5-HT2C); test: Competitive radioligand binding assays at 5-HT2 receptors; details: read-out: Ki range, entire family of 5-HT2 receptors; free base
Source text: Radioligand binding (RLB) (top) and IP1 functional assays
(bottom) for 5-HT2A (A), 5-HT2B (B), and 5-HT2C (C) receptors. (D) The PathHunter® β-arrestin assay was used to
HT2A receptors. Data represent the mean ± SEM of 2–6 biological replicates (performed in duplicate), with the sole
exception that the β-arrestin data for (–)-JRT represents a single biological replicate averaged from 2 technical replicates.
Drugs. Many of the drugs used in these studies were purchased from commercial sources including (+)-amphetamine sulfate (Sigma Aldrich, 1180004), ketamine hydrochloride (Spectrum, K1068), and ketanserin (APExBIO, B2248).

[4] = target: T3, 5-HT2A receptors (Gq activation) (Homo sapiens, UniProt P28223); test: BRET-based assay of Gq activation; assay type: cell-based
T3 construct: expressed in transfected cells; host or cells: HEK293T (transient)
Method: as §1, §2, §3, §4, §5, §6, §7, §8
IP1 Assay (5-HT2BR). The 5-HT2BR IP1 assays were performed at Eurofins Cerep SA (Celle l’Evescault, France) using
conventional methods (Catalog #3344) as described previously.14 Experiments were performed using the free bases of (+)-
JRT and (–)-JRT. Briefly, CHO cells transfected with the human 5-HT2B receptor were suspended in a buffer containing
10 mM Hepes/NaOH (pH 7.4), 4.2 mM KCl, 146 mM NaCl, 1 mM CaCl2, 0.5 mM MgCl2, 5.5 mM glucose and 50 mM LiCl.
Then the cells were distributed in microplates at a density of ~2.104 cells/well and incubated for 30 min at 37°C in the
presence of buffer (basal control), test compound, or reference agonist. For stimulated control measurement, separate
as §9
labeled IP1) and fluorescence donor (anti-IP1 antibody labeled with europium cryptate) were added. After 60 min at room
as §11, §12
measured at 620 nm (ratio).
BRET-Based GPCR Assays. […]

[5] = system: panel of 55 central nervous system targets; test: Competitive radioligand binding selectivity panel (Eurofins Discovery)
Method: Figure S3. Selectivity profiles for (+)-JRT and (–)-JRT across 55 central nervous system targets. The effects of (+)- JRT (10 μM) and (–)-JRT (10 μM) on a wide range of targets were assessed by Eurofins Discovery. Data represent % inhibition of the binding of a radioactively labeled ligand specific for each target. Assays were conducted in duplicate and the results were averaged.
Data Analysis and Statistics. Treatments were randomized, and data were analyzed by experimenters blinded to treatment conditions. Statistical analyses were performed using GraphPad Prism (version 10.0.3) unless noted otherwise.
All comparisons were planned prior to performing each experiment. No data were excluded. Data are represented as mean ± SEM, unless noted otherwise, with asterisks indicating *p < 0.05, **p < 0.01, ***p < 0.001, and ****p < 0.0001. Details of all statistical tests are shown in SI Appendix, Table S1. […]
Both (+)-JRT and (–)-
JRT were synthesized in-house and judged to be analytically pure based on NMR and LC-MS data. For cell culture experiments, VEH = 0.1% (agonist studies) or 0.2% (antagonist studies) molecular biology grade dimethyl sulfoxide (Sigma-Aldrich). For in vivo experiments, compounds were administered i.p. at 5 mL/kg using 0.9% saline as the vehicle, unless noted otherwise. VEH = USP grade saline (0.9%). Stock solutions for behavioral assays were prepared fresh before use.
Fumarate salts of (+)-JRT and (–)-JRT were used for all biological studies unless noted otherwise.
Animals. All experimental procedures involving animals were approved by the Institutional Animal Care and Use Committee (IACUC) at the University of California, Davis, the Salk Institute, Weill Cornell Medicine, McLean Hospital (Harvard Medical School), or the Contract Research Organization (CRO) where the study was performed. All procedures involving animals adhered to principles described in the National Institutes of Health Guide for the Care and Use of Laboratory Animals.
Animals were either obtained from Jackson Laboratory (Sacramento, C.A.) or bred in-house unless noted otherwise. Power analyses were conducted to ensure appropriate sample sizes for all experiments involving animals. Animals were housed 2–5 animals of the same sex per cage on a 12h light/dark cycle and were given ad libitum access to food and water unless noted otherwise. The University of California, Davis, the Salk Institute, and Weill Cornell Medicine are accredited by the Association for Assessment and Accreditation of Laboratory Animal Care International (AAALAC). Whenever possible, both sexes were utilized. However, a single sex was utilized in some cases when 1) a contract research organization had only […]
Radioligand Binding Selectivity Panel. Competitive radioligand binding studies for (+)-JRT (10 μM) and (–)-JRT (10 μM) were performed across a panel of receptors at Eurofins Discovery. Experiments were performed using the free bases of […]
radioligand and source of receptor (5,6,7,8,9,10,11,12).
Radioligand Binding Assays (5-HT2AR and 5-HT2CR). The 5-HT2AR and 5-HT2CR competitive radioligand binding assays were performed at Epics Therapeutics S.A. (Belgium, FAST-0505B) using conventional methods. Experiments were performed using the free bases of (+)-JRT and (–)-JRT. […] Nonspecific binding was determined by co-incubation with 200-fold excess of cold competitor DOI. […]

C57BL/6J mice = test: Novelty-induced locomotion; assay type: in vivo; details: 1 mg/kg

T3 sequence (P28223 whole entry): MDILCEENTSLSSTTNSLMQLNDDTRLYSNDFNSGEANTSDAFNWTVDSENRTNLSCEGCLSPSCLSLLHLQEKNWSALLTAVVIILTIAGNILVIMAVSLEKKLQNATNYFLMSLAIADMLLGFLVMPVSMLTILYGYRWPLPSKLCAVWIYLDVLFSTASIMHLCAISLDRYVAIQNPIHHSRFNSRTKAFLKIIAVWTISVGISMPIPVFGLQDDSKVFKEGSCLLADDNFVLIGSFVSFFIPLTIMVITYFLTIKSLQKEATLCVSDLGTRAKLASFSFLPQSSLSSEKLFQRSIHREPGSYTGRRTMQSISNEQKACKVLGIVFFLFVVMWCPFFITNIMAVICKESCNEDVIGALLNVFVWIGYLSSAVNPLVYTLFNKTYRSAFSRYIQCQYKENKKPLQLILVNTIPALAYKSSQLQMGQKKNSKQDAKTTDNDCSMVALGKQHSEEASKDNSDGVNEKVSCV
Chain of wild type human 5-HT2A receptor (psychLight2, PSYLI2 cells) (P28223 with tags, fused parts or gaps): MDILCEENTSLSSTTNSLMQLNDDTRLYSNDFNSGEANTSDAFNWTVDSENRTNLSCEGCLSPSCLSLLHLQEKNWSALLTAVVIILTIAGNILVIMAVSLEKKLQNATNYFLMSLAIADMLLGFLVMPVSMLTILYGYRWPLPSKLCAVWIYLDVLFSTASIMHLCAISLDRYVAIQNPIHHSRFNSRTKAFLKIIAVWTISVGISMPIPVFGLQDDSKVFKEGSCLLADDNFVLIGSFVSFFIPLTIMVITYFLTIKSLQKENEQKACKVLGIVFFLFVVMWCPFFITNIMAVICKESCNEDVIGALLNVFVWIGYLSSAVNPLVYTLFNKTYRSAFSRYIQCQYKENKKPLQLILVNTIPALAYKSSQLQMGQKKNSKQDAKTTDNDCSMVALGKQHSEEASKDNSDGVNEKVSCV
Chain of wild type human 5-HT2A receptor (psychLight2, PSYLI2 cells) (P42212 with tags, fused parts or gaps partner): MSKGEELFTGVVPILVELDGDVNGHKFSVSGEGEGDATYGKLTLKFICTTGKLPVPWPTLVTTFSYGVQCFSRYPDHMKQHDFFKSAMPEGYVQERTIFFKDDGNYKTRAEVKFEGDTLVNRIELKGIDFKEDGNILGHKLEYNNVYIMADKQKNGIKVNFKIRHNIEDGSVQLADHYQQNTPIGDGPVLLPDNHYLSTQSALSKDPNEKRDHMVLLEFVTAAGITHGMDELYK
T1 sequence (P28223 whole entry): as the sequence (P28223 whole entry) above
T2 sequence (P41595 whole entry): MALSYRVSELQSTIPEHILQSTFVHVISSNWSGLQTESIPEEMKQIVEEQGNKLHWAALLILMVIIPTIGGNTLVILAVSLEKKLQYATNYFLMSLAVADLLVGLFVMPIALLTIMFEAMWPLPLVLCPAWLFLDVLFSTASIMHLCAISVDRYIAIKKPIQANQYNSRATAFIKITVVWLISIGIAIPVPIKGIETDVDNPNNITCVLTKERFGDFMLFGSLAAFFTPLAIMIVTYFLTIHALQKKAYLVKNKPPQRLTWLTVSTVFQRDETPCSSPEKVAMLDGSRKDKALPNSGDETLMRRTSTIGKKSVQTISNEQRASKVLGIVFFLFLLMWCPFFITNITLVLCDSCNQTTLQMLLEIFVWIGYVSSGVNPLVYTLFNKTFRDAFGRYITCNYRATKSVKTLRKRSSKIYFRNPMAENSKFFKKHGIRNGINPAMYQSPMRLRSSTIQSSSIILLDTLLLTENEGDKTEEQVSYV

Question: `CCN(CC)C(=O)[C@@H]1C=C2c3cccc4ccn(c34)C[C@H]2N(C)C1` [(+)-JRT] was tested. Which pEC50 [1] did it give?
Answer: 7.05

Question: And the Emax ([1]; read-out: psychLight (WT): EMax)?
Answer: 33%

Question: And the “Persistence of the effect on response bias following a single dose” value (male Long Evans rats; 1 mg/kg, continued daily cold-water stress)?
Answer: at least 3 d

Question: And the “Response bias (log b) (Figure 6G)” value (male Long Evans rats; Day 2, Day 1 0.131 ± 0.082)?
Answer: 0.406 ± 0.069

Question: What about the “Response bias (log b) (Figure 6G)” value (male Long Evans rats; Day 3, Day 1 0.131 ± 0.082) of the same compound?
Answer: 0.474 ± 0.112

Question: And the “Response bias (log b) (Figure 6G)” value (male Long Evans rats; Day 11, Day 1 0.131 ± 0.082)?
Answer: 0.290 ± 0.061

Question: And the “Response bias (log b) (Figure 6G)” value (male Long Evans rats; Day 1 (stressed, before drug) 0.131 ± 0.082)?
Answer: 0.491 ± 0.071

Question: And the Emax [2]?
Answer: 81%

Question: What about the Emax (human 5-HT2B receptor) of the same compound?
Answer: 48%

Question: What about the pKi [3] of the same compound?
Answer: 6.74 to 8.70

Question: What about the pEC50 ([4]; Gq Activation: EC50, agonist mode) of the same compound?
Answer: 9.40

Question: And the pEC50 ([4]; Gq Activation: EC50, antagonist mode, cotreated with 10 μM serotonin (5-HT + compound))?
Answer: 6.03

Question: What about the Emax ([4]; read-out: Gq Activation: EMax) of the same compound?
Answer: 33%

Question: What about the “Selectivity across panel of 55 central nervous system targets” value ([5]; 10 μM, free bases) of the same compound?
Answer: highly selective for a subset of serotonin receptors

Question: What about the “Affinity for dopamine, histamine, or adrenergic receptors” value ([5]; radioligand binding, unlike LSD) of the same compound?
Answer: neither of these compounds exhibited affinity

Question: What about the “Affinity for dopamine, histamine, muscarinic, and adrenergic receptors” value ([5]; unlike CLZ) of the same compound?
Answer: lacks affinity

Question: And the Effect on locomotion (C57BL/6J mice; novel arena 30 min)?
Answer: does not impact locomotion

Question: What about the Serotonin syndrome-like responses (C57BL/6J mice; backward walking, forepaw treading, hind limb abduction, low body posture, Straub tail, tremor) of the same compound?
Answer: does not impact locomotion (SI Appendix, Fig. S10) or produce any serotonin syndrome-like responses
